What was measured:
hMCH-1R = target: T1, hMCH-1R (Homo sapiens, UniProt Q99705); assay: MCH-1 receptor binding test (125I-MCH binding to membranes of hMCH-1R transfected CHO/Galpha16 cells); details: 100 pM 125I-MCH, membranes of CHO/Galpha16 cells stably transfected with hMCH-1R, 60 minutes at ambient temperature
T1 construct: expressed in transfected cells; host or cells: CHO/Galpha16 cells, stably transfected; membrane preparation
Protocol: Membranes from CHO/Galpha16 cells stably transfected with human hMCH-1R are resuspended using a syringe (needle 0.6×25 mm) and diluted in test buffer (50 mM HEPES, 10 mM MgCl2, 2 mM EGTA, pH 7.00; 0.1% bovine serum albumin (protease-free), 0.021% bacitracin, 1 μg/ml aprotinin, 1 μg/ml leupeptin and 1 μM phosphoramidone) to a concentration of 5 to 15 μg/ml. […] After the incubation the reaction is filtered using a cell harvester through 0.5% PEI treated glass fibre filters (GF/B, Unifilter Packard). The membrane-bound radioactivity retained on the filter is then determined after the addition of scintillator substance (Packard Microscint 20) in a measuring device (TopCount of Packard).
The analysis of the concentration binding curve is carried out on the assumption of one receptor binding site.

MCH-1R [1] = target: T2, MCH-1R (Rattus norvegicus, UniProt P97639); set-up: host or cells: rats (in vivo); details: rats; cited from earlier work
MCH-1R [2] = target: T2, MCH-1R; set-up: host or cells: whole animals (in vivo); details: animals treated with the antagonist; cited from earlier work

T2 sequence (P97639 whole entry): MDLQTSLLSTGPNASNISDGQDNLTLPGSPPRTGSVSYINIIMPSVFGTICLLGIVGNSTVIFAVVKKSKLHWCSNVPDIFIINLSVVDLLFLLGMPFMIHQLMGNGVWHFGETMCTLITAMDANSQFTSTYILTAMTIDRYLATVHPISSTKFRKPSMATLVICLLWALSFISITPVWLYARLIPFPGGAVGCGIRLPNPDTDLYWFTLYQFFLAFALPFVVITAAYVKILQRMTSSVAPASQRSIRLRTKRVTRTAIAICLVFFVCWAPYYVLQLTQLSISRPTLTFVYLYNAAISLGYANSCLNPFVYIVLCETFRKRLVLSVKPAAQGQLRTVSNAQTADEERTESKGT
T1 sequence (Q99705 whole entry): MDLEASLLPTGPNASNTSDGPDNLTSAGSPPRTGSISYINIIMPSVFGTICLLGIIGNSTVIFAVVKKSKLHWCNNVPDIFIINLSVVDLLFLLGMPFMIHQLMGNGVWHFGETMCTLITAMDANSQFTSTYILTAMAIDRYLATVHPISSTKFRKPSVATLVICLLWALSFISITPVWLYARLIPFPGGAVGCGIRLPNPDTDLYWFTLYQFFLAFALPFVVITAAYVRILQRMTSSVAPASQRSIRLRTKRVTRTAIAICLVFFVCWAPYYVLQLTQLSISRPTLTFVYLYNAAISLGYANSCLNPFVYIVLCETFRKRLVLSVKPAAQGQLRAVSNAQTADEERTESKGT

Compound | melting point [°C] | other results
CN(C)CC1CCN(CCOc2ccc(C#Cc3ccc(-c4ccc(Cl)cc4)cn3)cc2)CC1.Cl | > 250 | –
CCN(CC)CCOc1ccc(C#Cc2ccc(-c3ccc(F)c(F)c3)cn2)cc1 [Example 1.3, (2-{4-[5-(3,4-difluoro-phenyl)-pyridin-2-ylethynyl]-phenoxy}-ethyl)-diethyl-amine] | – | IC50 (hMCH-1R): 74 nM
Clc1ccc(-c2ccc3nc(C#Cc4ccc(CN5CCCC5)cc4)ccc3c2)cc1 [Example 17, 6-(4-chloro-phenyl)-2-(4-pyrrolidin-1-ylmethyl-phenylethynyl)-quinoline] | 170 to 193 | –
Clc1ccc(-c2ccc3nc(C#Cc4ccc(OCCN5CCCC5)cc4)ccc3c2)cc1 [Example 18, 6-(4-chloro-phenyl)-2-[4-(2-pyrrolidin-1-yl-ethoxy)-phenylethynyl]-quinoline] | 176 to 185 | –
Clc1ccc(-c2ccc3nc(C#Cc4cccc(OCCN5CCCC5)c4)ccc3c2)cc1 [Example 19, 6-(4-chloro-phenyl)-2-[3-(2-pyrrolidin-1-yl-ethoxy)-phenylethynyl]-quinoline] | 114 to 117 | –
Clc1ccc(-c2ccc3nc(C#Cc4ccc5oc(CN6CCCC6)nc5c4)ccc3c2)cc1 [Example 20, 6-(4-chloro-phenyl)-2-(2-pyrrolidin-1-ylmethyl-benzoxazol-5-ylethynyl)-quinoline] | 151 to 153 | –
Clc1ccc(-c2ccc(C#Cc3ccc4oc(CN5CCCC5)nc4c3)nc2)cc1 [Example 21, 5-[5-(4-chloro-phenyl)-pyridin-2-ylethynyl]-2-pyrrolidin-1-ylmethyl-benzoxazole] | 145 | –
COCC1=C(C(=O)OC)[C@H](c2ccc(F)c(F)c2)N(C(=O)NCCCN2CCC(c3cccc(NC(C)=O)c3)CC2)C(=O)N1 [SNAP-7941] | – | effects in behavioural experiments (MCH-1R [1]): anxiolytic and antidepressant effects; body weight in long term trials (MCH-1R [2]): lose significant amounts of weight

Reference: US7452911B2 (Boehringer Ingelheim Pharma GmbH & Co. KG, priority 2002, dated 2008)
